The values below are quoted from earlier work in patent publication US20060083727A1, “Methods and compositions for the treatment of diseases characterized by calcification and/or plaque formation” (Nanobac Pharmaceuticals, Inc., priority 2004, published 2006).

This data set concerns NB/CNP. As to conditions: background statement.

As for `O=C(O)CN(CCN(CC(=O)O)CC(=O)O)CC(=O)O` [EDTA, Ethylenediaminetetraacetic acid], the “Effect on protective biofilm secreted by NB/CNP” value is “can assist in dissolving the protective biofilm”. As for Penicillin, the “Killing / sensitivity of NB/CNP” value is “cannot be killed”.
